Measured values reported in US20240300913A1, “FLAVONE DERIVATIVE AND USE THEREOF FOR IMPROVING PULMONARY FIBROSIS” (A-CHEMBIO CO., LTD, priority 2023, published 2024).

How the values were obtained:
[1] = test system: A549 cells; experiment: Effect upon TGF-β1 treatment in A549 cells (western blot of protein levels); type: cell-based
Experimental: 3.5*10^5 A549 cells, derived from lung cancer, were suspended in a medium, dispensed into a 60-mm plate, and incubated for 48 hours. After 48 hours of incubation, each plate was treated with TGF-β1 (10 ng/ml) alone or in combination with novel flavone derivative I at varying concentrations or a predetermined concentration and/or nintedanib (NIDB), a therapeutic drug for idiopathic pulmonary fibrosis and interstitial lung disease as a positive control. […] Next, only the supernatant was collected by centrifugation (at 14,000 rpm for 10 minutes) at 4° C., and the proteins were separated by SDS-polyacrylamide gel electrophoresis (SDS-PAGE). The separated proteins were transferred to a polyvinylidene difluoride membrane (PVDF membrane), reacted in 5% nonfat dry milk for 3 hours, and then reacted with primary antibodies at 4° C. for 12 hours. After 12 hours, the proteins further reacted with secondary antibodies corresponding to the respective primary antibodies. Then, the protein band was examined, according to the manufacturer's protocol, using an ECL kit.
The effect of novel flavone derivative II upon TGF-β1 treatment in A549 cells was evaluated in the same manner as in Example 1 above. FIGS. 20 and 21 show the results thereof.
The effect of novel flavone derivative III upon TGF-β1 treatment in A549 cells was evaluated in the same manner as in Example 1 above.

[2] = test system: HULEC-5a cells; experiment: Effect upon TGF-β1 treatment in Hulec-5a cells (western blot of protein levels); type: cell-based, human
Experimental: (§1) 1.2×10^6 Hulec-5a cells, derived from pulmonary vessels, were suspended in a medium, dispensed into a 100-mm plate, and incubated for 24 hours. After 24 hours of incubation, each plate was treated with TGF-β1 (10 ng/ml) alone or in combination with novel flavone derivative I at varying concentrations or a predetermined concentration and/or nintedanib (NIDB), a therapeutic drug for idiopathic pulmonary fibrosis and interstitial lung disease. After 3, 24, and 48 hours of incubation, the cells were lysed with RIPA lysis buffer ([50 mM Tris]-Cl (pH, 7.4), 1% NP-40, 150 mM NaCl, 1 mM EDTA, and 1 mM phenylmethylsulfonyl fluoride (PMSF)) containing MG-132 (10 μM, proteasome inhibitor, protect the HIF-1α subunit from proteasome degradation). Next, only the supernatant was collected by centrifugation (at 13,000 rpm for 7 minutes) at 4° C., and the proteins were separated by SDS-polyacrylamide gel electrophoresis (SDS-PAGE). The separated proteins were transferred to a polyvinylidene difluoride membrane (PVDF membrane), reacted in 5% nonfat dry milk for 2 hours, and then reacted with primary antibodies at 4° C. overnight. After overnight, the proteins further reacted with secondary antibodies corresponding to the respective primary antibodies. Then, the protein band was examined, according to the manufacturer's protocol, using an ECL kit.
The effect of novel flavone derivative II upon TGF-β1 treatment in Hulec-5a cells was evaluated in the same manner as in Example 1 above.
The effect of novel flavone derivative III upon TGF-β1 treatment in Hulec-5a cells was evaluated in the same manner as in Example 1 above.

[3] = test system: HLF cells; experiment: Effect upon TGF-β1 treatment in HLF cells (western blot of protein levels); type: cell-based, human
Experimental: as §1, with “After suspending 5×10^6 human lung fibroblast (HLF) cells in a medium, […]” for “1.2×10^6”, “[…]” for “in a”, “hours. […]” for “hours.”, “24” for “24 hours of incubation, each plate was treated with TGF-β1 (10 ng/ml) alone or in combination with novel flavone derivative I at varying concentrations or a predetermined concentration and/or nintedanib (NIDB), a therapeutic drug for idiopathic pulmonary fibrosis and interstitial lung disease. After 3, 24,”
The effect of novel flavone derivative II upon TGF-β1 treatment in HLF cells was evaluated in the same manner as in Example 1 above.
The effect of novel flavone derivative III upon TGF-β1 treatment in HLF cells was evaluated in the same manner as in Example 1 above.

[4] = test system: A549 cells; experiment: Effect upon EGF treatment in A549 cells (western blot of protein levels); type: cell-based; conditions: 1 hour
Experimental: A549 cells, derived from lung cancer, were incubated at different cell numbers depending on the sample treatment time. 4.5×10^5 cells (30 minutes to 12 hours), 4.0×10^5 cells (24 hours), and 3.5×10^5 cells (48 hours) were suspended in the respective media, dispensed into a 60-mm plate, and incubated for 24 hours. After 24 hours, each plate was treated with EGF (2 ng/ml) alone or in combination with novel flavone derivative I at varying concentrations or a predetermined concentration. After a predetermined period (30 minutes to 48 hours) of incubation, the cells were lysed with RIPA lysis buffer ([50 mM Tris]-Cl (pH, 7.4), 1% NP-40, 150 mM NaCl, 1 mM EDTA, and 1 mM, phenylmethylsulfonyl fluoride (PMSF)) containing MG-132 (10 μM). Next, only the supernatant was collected by centrifugation (at 14,000 rpm for 10 minutes) at 4° C., and the proteins were separated by SDS-polyacrylamide gel electrophoresis (SDS-PAGE). […]
FIGS. 11 and 12 show the results thereof. […] Thus, the degree to which pulmonary fibrosis-related factors, whose expression levels were increased in A549 cells by EGF treatment, were inhibited by the treatment with novel flavone derivative I was evaluated.
The effect of novel flavone derivative II upon EGF treatment in A549 cells was evaluated in the same manner as in Example 1 above.

COc1ccc(-c2c(-c3ccc(O)c(O)c3)oc3cc(OC)c(OC)cc3c2=O)cc1 [novel flavone derivative I, 2-(3,4-dihydroxyphenyl)-6,7-dimethoxy-3-(4-methoxyphenyl)-4H-chromen-4-one]
decreased: levels of fibronectin, HIF-1α, NOX2, NOX4, vimentin, p-EGFR, EGFR, and p-AKT proteins, increased by TGF-β1 treatment ([1]; 10 ng/mL TGF-β1 and 5 μM compound, 24 hours, FIG. 7) | levels of fibronectin, HIF-1α, and p-c-Src proteins, increased by TGF-β1 treatment ([1]; 10 ng/mL TGF-β1 and 5 μM compound, 48 hours, FIG. 8) | levels of fibrosis-related factors (Fibronectin, α-SMA, NOX1, NOX2, and NOX4), increased by TGF-β1 treatment ([2]; HULEC-5a cells, 10 ng/mL TGF-β1 and/or 5 μM compound, 3, 24, and 48 hours, FIG. 9) | levels of fibrosis-related factors (fibronectin, COL4, α-SMA, and HIF-1α), increased by TGF-β1 treatment ([3]; 5 ng/mL TGF-β1 and 1 and 3 μM compound, 24 hours, FIG. 10) | levels of fibrosis-related factors (p-EGFR, EGFR, p-AKT, HIF-1α, and NOX2), increased by EGF treatment ([4]; 2 ng/mL EGF and compound at 1, 3, and 5 or 2 μM, FIGS. 11 and 12)

COc1ccc(-c2c(-c3ccc(O)c(OC)c3)oc3cc(OC)c(OC)cc3c2=O)cc1 [novel flavone derivative II, 2-(4-hydroxy-3-methoxyphenyl)-6,7-dimethoxy-3-(4-methoxyphenyl)-4H-chromen-4-one]
decreased: levels of Col3, Col4, fibronectin, and NOX4 proteins, increased by TGF-β treatment ([1]; 10 ng/mL TGF-β1 and compound, 24 hours, FIGS. 20 and 21) | levels of fibronectin, COL4, α-SMA, and HIF-1α, increased by TGF-β1 treatment ([2]; Hulec-5a cells, TGF-β1 treatment, FIG. 22) | levels of fibronectin, α-SMA, HIF-1α, and COL1, increased by TGF-β1 treatment ([3]; TGF-β1 treatment, FIG. 23) | level of NOX2, a fibrosis-related factor increased by EGF treatment ([4]; 2 ng/mL EGF and compound, FIG. 24)
